In ChEMBL document CHEMBL1201862, “PubChem BioAssay data set” (2004):
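Test compounds were applied to cells in 96-well plates for 48 hours at 5 doses. Here, GI50 denotes the concentration required for 50% inhibition of growth.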 Activity calls are given as the source filed them. No stated cut-off is given here; in the data, active = GI50 up to about 1.1 µM and inactive = higher.

Assays:
Test in all cases: growth of human tumour cells (NCI), 48 h
ACHN = system: ACHN
HCT-116 = system: HCT-116
HCT-15 = system: HCT-15
HOP-92 = system: HOP-92
HT-29 = system: HT-29
MCF7 = system: MCF7
MDA-MB-435 = system: MDA-MB-435
NCI/ADR-RES = system: NCI/ADR-RES
OVCAR-5 = system: OVCAR-5
OVCAR-8 = system: OVCAR-8
PC-3 = system: PC-3
SK-MEL-2 = system: SK-MEL-2
SK-MEL-5 = system: SK-MEL-5
SK-OV-3 = system: SK-OV-3
SNB-19 = system: SNB-19
T47D = system: T47D
TK-10 = system: TK-10
U-251 = system: U-251
UACC-62 = system: UACC-62
SR = system: SR

Cc1c(Cl)c(C)c(Cl)c(O)c1Cl
GI50 (ACHN): 22.8 µM (inactive)
GI50 (HCT-116): 18.2 µM (inactive)
GI50 (HCT-15): 21.8 µM
GI50 (HOP-92): 19.1 µM (inactive)
GI50 (HT-29): 48.5 µM (inactive)
GI50 (MCF7): 31.6 µM (inactive)
GI50 (MDA-MB-435): 18.9 µM (inactive)
GI50 (NCI/ADR-RES): 22.2 µM (inactive)
GI50 (OVCAR-5): 35.2 µM (inactive)
GI50 (OVCAR-8): 30.3 µM (inactive)
GI50 (PC-3): 19.8 µM (inactive)
GI50 (SK-MEL-2): 13.2 µM (inactive)
GI50 (SK-MEL-5): 15.3 µM (inactive)
GI50 (SK-OV-3): 26.5 µM (inactive)
GI50 (SNB-19): 30.5 µM (inactive)
GI50 (T47D): 24.8 µM (inactive)
GI50 (TK-10): 22.1 µM (inactive)
GI50 (U-251): 16.3 µM (inactive)
GI50 (UACC-62): 16.7 µM (inactive)

C[C@]12CC/C(=N\OCCN3CCCC3)C=C1CCC1C2CC[C@@]2(C)C1CC[C@]2(C)O (stereo not given in full)
GI50 (ACHN): 11.1 µM (inactive)
GI50 (HCT-116): 5.16 µM (inactive)
GI50 (HCT-15): 3.29 µM
GI50 (HOP-92): 11.7 µM (inactive)
GI50 (HT-29): 1.25 µM (inactive)
GI50 (MCF7): 5.37 µM (inactive)
GI50 (MDA-MB-435): 2.28 µM (inactive)
GI50 (NCI/ADR-RES): 3.6 µM (inactive)
GI50 (OVCAR-5): 33.3 µM (inactive)
GI50 (OVCAR-8): 14 µM (inactive)
GI50 (PC-3): 7.29 µM (inactive)
GI50 (SK-MEL-2): 16.4 µM (inactive)
GI50 (SK-MEL-5): 14.8 µM (inactive)
GI50 (SK-OV-3): 18.5 µM (inactive)
GI50 (SNB-19): 14.7 µM (inactive)
GI50 (T47D): 12.3 µM (inactive)
GI50 (TK-10): 15.8 µM (inactive)
GI50 (U-251): 7.11 µM (inactive)
GI50 (UACC-62): 3.35 µM (inactive)

Cc1cc(C)cc(Nc2nnc3n2S(=O)(=O)c2cc(C#N)c(Cl)cc2S3)c1
GI50 (ACHN): 3.08 µM (inactive)
GI50 (HCT-116): 2.17 µM (inactive)
GI50 (HCT-15): 2.52 µM
GI50 (HT-29): 1.83 µM (inactive)
GI50 (MCF7): 1.87 µM (inactive)
GI50 (MDA-MB-435): 3.03 µM (inactive)
GI50 (NCI/ADR-RES): 2.44 µM (inactive)
GI50 (OVCAR-5): 2.83 µM (inactive)
GI50 (SK-MEL-2): 7.53 µM (inactive)
GI50 (SK-MEL-5): 7.55 µM (inactive)
GI50 (SK-OV-3): 6.56 µM (inactive)
GI50 (SNB-19): 6.78 µM (inactive)
GI50 (SR): 0.507 µM (active)
GI50 (T47D): 3.26 µM (inactive)
GI50 (U-251): 1.96 µM (inactive)
GI50 (UACC-62): 3.97 µM (inactive)

CSc1cc(Br)ccc1-n1c(C(=O)c2ccccc2)c(SC)n(-c2ccccc2)c1=O
GI50 (ACHN): > 100 µM (inactive)
GI50 (HCT-116): 49.3 µM (inactive)
GI50 (HCT-15): 23 µM
GI50 (HOP-92): > 100 µM (inactive)
GI50 (HT-29): 52.8 µM (inactive)
GI50 (MCF7): 63.1 µM (inactive)
GI50 (MDA-MB-435): 7.59 µM (inactive)
GI50 (NCI/ADR-RES): 53.8 µM (inactive)
GI50 (OVCAR-5): > 100 µM (inactive)
GI50 (OVCAR-8): > 100 µM (inactive)
GI50 (PC-3): 5.53 µM (inactive)
GI50 (SK-MEL-5): 67.8 µM (inactive)
GI50 (SK-OV-3): > 100 µM (inactive)
GI50 (SNB-19): > 100 µM (inactive)
GI50 (SR): 74.5 µM (inactive)
GI50 (TK-10): > 100 µM (inactive)
GI50 (U-251): > 100 µM (inactive)
GI50 (UACC-62): > 100 µM (inactive)

O=C(N=C1N(c2ccccc2)C(=O)C(=O)N1c1ccccc1)c1ccccc1
GI50 (ACHN): 3.78 µM (inactive)
GI50 (HCT-116): 3.99 µM (inactive)
GI50 (HCT-15): 9.66 µM
GI50 (HOP-92): 2.99 µM (inactive)
GI50 (HT-29): 13.7 µM (inactive)
GI50 (MDA-MB-435): 22.9 µM (inactive)
GI50 (NCI/ADR-RES): 11 µM (inactive)
GI50 (OVCAR-5): 27.5 µM (inactive)
GI50 (OVCAR-8): 9.35 µM (inactive)
GI50 (PC-3): 14.7 µM (inactive)
GI50 (SK-MEL-2): 15.5 µM (inactive)
GI50 (SK-MEL-5): 14.9 µM (inactive)
GI50 (SK-OV-3): 4.68 µM (inactive)
GI50 (SNB-19): 13.3 µM (inactive)
GI50 (SR): 7.46 µM (inactive)
GI50 (T47D): 15.6 µM (inactive)
GI50 (TK-10): 15.3 µM (inactive)
GI50 (U-251): 11.7 µM (inactive)
GI50 (UACC-62): 7.93 µM (inactive)

O=C1c2cccc(NCCCNCCO)c2C(=O)c2cccc(NCCCNCCO)c21
GI50 (ACHN): 2.08 µM (inactive)
GI50 (HCT-15): 8.99 µM
GI50 (HOP-92): 1.55 µM (inactive)
GI50 (HT-29): 2.02 µM (inactive)
GI50 (MCF7): 0.325 µM (active)
GI50 (MDA-MB-435): 1.67 µM (inactive)
GI50 (NCI/ADR-RES): 13.7 µM (inactive)
GI50 (OVCAR-5): 2.31 µM (inactive)
GI50 (OVCAR-8): 2.16 µM (inactive)
GI50 (PC-3): 2.41 µM (inactive)
GI50 (SK-MEL-2): 1.85 µM (inactive)
GI50 (SK-MEL-5): 2 µM (inactive)
GI50 (SK-OV-3): 2.25 µM (inactive)
GI50 (SNB-19): 1.15 µM (inactive)
GI50 (T47D): 3.27 µM (inactive)
GI50 (TK-10): 3.85 µM (inactive)
GI50 (UACC-62): 2.01 µM (inactive)

CCSC1SC(c2ccccc2)(c2ccccc2)c2ccccc21 (stereo not given)
GI50 (ACHN): 44.7 µM (inactive)
GI50 (HCT-116): 30.8 µM (inactive)
GI50 (HCT-15): 42.1 µM
GI50 (HOP-92): 30.8 µM (inactive)
GI50 (HT-29): 34.6 µM (inactive)
GI50 (MCF7): 33.7 µM (inactive)
GI50 (MDA-MB-435): 33.7 µM (inactive)
GI50 (NCI/ADR-RES): 43.2 µM (inactive)
GI50 (OVCAR-5): 45.4 µM (inactive)
GI50 (OVCAR-8): 64.7 µM (inactive)
GI50 (PC-3): 39.4 µM (inactive)
GI50 (SK-MEL-5): 26.4 µM (inactive)
GI50 (SK-OV-3): > 100 µM (inactive)
GI50 (SNB-19): > 100 µM (inactive)
GI50 (TK-10): 67.3 µM (inactive)
GI50 (U-251): 92.3 µM (inactive)
GI50 (UACC-62): 53.6 µM (inactive)

Cc1ccc(NC(=O)C(=O)CC(=O)c2c(C)[n+]([O-])c3ccccc3[n+]2[O-])cc1C
GI50 (ACHN): > 100 µM (inactive)
GI50 (HCT-116): > 100 µM (inactive)
GI50 (HCT-15): 83.2 µM
GI50 (HOP-92): > 100 µM (inactive)
GI50 (HT-29): > 100 µM (inactive)
GI50 (OVCAR-5): > 100 µM (inactive)
GI50 (OVCAR-8): > 100 µM (inactive)
GI50 (SK-MEL-2): > 100 µM (inactive)
GI50 (SK-MEL-5): > 100 µM (inactive)
GI50 (SK-OV-3): > 100 µM (inactive)
GI50 (SNB-19): 47.3 µM (inactive)
GI50 (SR): 33.5 µM (inactive)
GI50 (TK-10): > 100 µM (inactive)
GI50 (U-251): > 100 µM (inactive)
GI50 (UACC-62): > 100 µM (inactive)
